From patent publication US7820817B2, “Modulators of muscarinic receptors” (Vertex Pharmaceuticals Incorporated, priority 2004, dated 2010)

Tested on: at least one muscarinic receptor, M1, M2, M3, M4
Experiment: Muscarinic modulation activity (Table 3)
Format: cell-based
Parameters: key: +++: exhibited muscarinic modulation activity for at least one muscarinic receptor, M1, M2, M3, M4, at a concentration of less than 5 μM; ++: exhibited muscarinic modulation activity for at least one muscarinic receptor, M1, M2, M3, M4, at a concentration of between 30 μM and 5 μM; +: exhibited muscarinic modulation activity for at least one muscarinic receptor, M1, M2, M3, M4, at a concentration of greater than 30 μM; −: were not assayed or did not exhibit muscarinic modulation activity for at least one muscarinic receptor, M1, M2, M3, M4, at the concentration at which the assay was performed
Conditions: concentration at which modulation of at least one muscarinic receptor, M1, M2, M3, M4, was exhibited; CHO cells
Procedure: CHO cells expressing muscarinic receptors (M1 to M5) are grown as monolayers in tissue culture flasks at 37° C. in a humidified atmosphere containing 5% CO2 and passaged every 3-5 days. The growth media is Dulbecco's modified eagles medium (DMEM, Gibco Cat#12430-054), containing 25 mM Hepes and supplemented with Fetal Bovine Serum (Hyclone, cat#SH30071.03), 0.1 mM of MEM non-essential amino acids (GIBCO, Cat#11140-050), 1 mM MEM Sodium Pyruvate (GIBCO Cat#11360-070) and 100 units/ml of Penicillin G and 100 μg/ml of Streptomycin (GIBCO Cat#15140-122). The recombinant muscarinic receptor cell lines are grown under antibiotic pressure with media containing 25 μg/ml zeocin and 500 μg/ml G418 (M1-CHO), 4 μg/ml puromycin, 50 μg/ml zeocin and 2.5 μg/ml blasticidin (M2 and M4-CHO) or 50 μg/ml zeocin and 4 μg/ml puromycin (M3 and M5-CHO).
Cells are harvested at 80-90% confluence using Versene (GIBCO Cat#15040-066), collected by centrifugation and seeded 18-24 hrs prior to running the calcium assay at a density of 5,000-10,000 cells/well in […], clear-bottomed 384-well plates (BD Biocoat, poly-D-lysine, Cat#356663). The day of the experiment, the cells are washed with a plate washer (Bioteck Instruments, ELX 405) using bath1 buffer (140-mM NaCl, 4.5-mM KCl, 2-mM CaCl2, 1-mM MgCl2, 10-mM Hepes-Na, 10-mM Glucose, pH 7.4, with NaOH) containing 1 mM Probenecid. Next, the calcium dye Fluo-3 (25 μl/well of Fluo-3 AM at 4 μM, Molecular Probes F-1241, in Bath 1 buffer containing 1 mM Probenecid) is added to the 25 μl of Bath 1 remaining in each well after the plate wash and the dye is loaded at 37° C. in the tissue culture incubator for 60-90 min. The fluorescent dye is removed using the plate washer with Bath 1 containing 1 mM Probenecid, leaving 25 μl/well of this solution after the wash. Alternatively, cells can be loaded with the calcium indicator from Molecular Devices (Calcium 3 Assay Reagents, Cat #R7181) adding 5 μl of a 5× solution dye in Bath 1 containing 1 mM Probenecid (10 ml per dye flask cat#R7182 to generate a solution […]) to 20 μl of the same buffer. After loading for 60 min. the experiment can be run without having to remove the dye.
Compounds are prepared at a 2× fold concentration in a 96-well plate (round bottom, Costar Corning cat#3656), by reconstituting the pre-spotted compounds in bath 1 containing 1 mM probenecid. The final concentration DMSO is 0.5%, and the amount of DMSO is normalized across the assay plate. To determine an agonist action of the compounds on muscarinic receptors, the reconstituted compounds are added (25 μl compound/well) to the cell assay plate (containing 25 μl/well) using the multi-channel robotic system of the FLIPR 3 Instrument (Molecular Devices, Sunnyvale, Calif.). To determine a functional inhibitory action of the compounds on muscarinic receptors, the reconstituted compounds are added (25 μl compound/well) to the assay plate and pre-incubated for 15 min prior to adding 25 μl of Carbachol at 3× the EC80 for each muscarinic subtype. Alternatively, the compounds can be co-applied simultaneously with the agonist. In both assay modes, the fluorescence is recorded for 60 sec (excitation wavelength is […] and emission wavelength 540 nm) using the FLIPR 3 instrument.
The potency, efficacy and selectivity of the muscarinic compounds were evaluated by screening the compound activity across the whole family (M1 to M5 cells).
CHO cells expressing muscarinic receptors (M1 to M5) and containing a gene reporter system β-Lactamase) with transcriptional control mediated by calcium release (NFAT activation). See Zlokarnik, G; Negulescu, P. A.; Knapp, T. E.; Mere, L; Burres, N; Feng, L; Whitney, M; Roemer, K; Tsien, R. Y. Quantitation of transcription and clonal selection of single living cells with β-lactamase as reporter. Science, 1998 Jan. 2, 279(5347):84-8. The cells are grown as monolayers in tissue culture flasks at 37° C. in a humidified atmosphere containing 5% CO2 and passaged every 3-5 days. […]

Row | SMILES | ACTIVITY (muscarinic modulation activity)
1 | CCOC(=O)N1C2CCC1CC(N1CCN(c3nnc(-c4ccccc4)cc3C#N)CC1)C2 (centres unmarked) [Compound 11, 3-[4-(4-cyano-6-phenyl-pyridazin-3-yl)piperazin-1-yl]-8-azabicyclo[3.2.1]octane-8-carboxylic acid ethyl ester] | + (exhibited muscarinic modulation activity for at least one muscarinic receptor, M1, M2, M3, M4, at a concentration of greater than 30 μM)
2 | N#Cc1cccnc1N1CCN(C2CC3CCC2C3)CC1 (centres unmarked) [Compound 32, 2-(4-norbornan-2-ylpiperazin-1-yl)nicotinonitrile] | + (exhibited muscarinic modulation activity for at least one muscarinic receptor, M1, M2, M3, M4, at a concentration of greater than 30 μM)
3 | CCOC(=O)N1C2CCC1CC(N1CCN(c3ccc(C(N)=O)cn3)CC1)C2 (centres unmarked) [Compound 36, 3-[4-(5-carbamoyl-2-pyridyl)piperazin-1-yl]-8-azabicyclo[3.2.1]octane-8-carboxylic acid ethyl ester] | +++ (exhibited muscarinic modulation activity for at least one muscarinic receptor, M1, M2, M3, M4, at a concentration of less than 5 μM)
4 | N#Cc1nccnc1N1CCN(CC2CCC3CCC2C3)CC1 (centres unmarked) [Compound 23, 3-[4-(4-bicyclo[3.2.1]octylmethyl)piperazin-1-yl]pyrazine-2-carbonitrile] | −
5 | CCOC(=O)N1C2CCC1CC(N1CCN(c3ccc(C(F)(F)F)cn3)CC1)C2 (centres unmarked) [Compound 28, 3-[4-[5-(trifluoromethyl)-2-pyridyl]piperazin-1-yl]-8-azabicyclo[3.2.1]octane-8-carboxylic acid ethyl ester] | +++ (exhibited muscarinic modulation activity for at least one muscarinic receptor, M1, M2, M3, M4, at a concentration of less than 5 μM)
6 | N#Cc1ccc(C(F)(F)F)nc1N1CCN(CC2CC3C=CC2C3)CC1 (centres unmarked) [Compound 53, 2-[4-(5-bicyclo[2.2.1]hept-2-enylmethyl)piperazin-1-yl]-6-(trifluoromethyl)nicotinonitrile] | + (exhibited muscarinic modulation activity for at least one muscarinic receptor, M1, M2, M3, M4, at a concentration of greater than 30 μM)
7 | N#Cc1ccc(N2CCN(C3CC4CCC3C4)CC2)nc1 (centres unmarked) [Compound 19, 6-(4-norbornan-2-ylpiperazin-1-yl)nicotinonitrile] | ++ (exhibited muscarinic modulation activity for at least one muscarinic receptor, M1, M2, M3, M4, at a concentration of between 30 μM and 5 μM)
8 | CCOC(=O)N1C2CCC1CC(N1CCC(c3nc(OC)cc(OC)n3)CC1)C2 (centres unmarked) [Compound 57, 3-[4-(4,6-dimethoxypyrimidin-2-yl)-1-piperidyl]-8-azabicyclo[3.2.1]octane-8-carboxylic acid ethyl ester] | +++ (exhibited muscarinic modulation activity for at least one muscarinic receptor, M1, M2, M3, M4, at a concentration of less than 5 μM)
9 | FC(F)(F)c1ccc(N2CCN(CC3CC4C=CC3C4)CC2)nc1 (centres unmarked) [Compound 47, 1-(5-bicyclo[2.2.1]hept-2-enylmethyl)-4-[5-(trifluoromethyl)-2-pyridyl]-piperazine] | + (exhibited muscarinic modulation activity for at least one muscarinic receptor, M1, M2, M3, M4, at a concentration of greater than 30 μM)
10 | N#Cc1ccc(N2CCN(CC3CC4C=CC3C4)CC2)nc1 (centres unmarked) [Compound 34, 6-[4-(5-bicyclo[2.2.1]hept-2-enylmethyl)piperazin-1-yl]nicotinonitrile] | +++ (exhibited muscarinic modulation activity for at least one muscarinic receptor, M1, M2, M3, M4, at a concentration of less than 5 μM)
11 | CCOC(=O)N1C2CCC1CC(N1CCN(c3ncc(-c4ccccc4)cc3C#N)CC1)C2 (centres unmarked) [Compound 33, 3-[4-(3-cyano-5-phenyl-2-pyridyl)piperazin-1-yl]-8-azabicyclo[3.2.1]octane-8-carboxylic acid ethyl ester] | + (exhibited muscarinic modulation activity for at least one muscarinic receptor, M1, M2, M3, M4, at a concentration of greater than 30 μM)
